Tests used:
Format in all cases: biochemical
[1] = biological target: CDK4/CycD1 (Homo sapiens, UniProt P11802); assay: kinase panel, HTRF or ADP-Glo, single dose; details: read-out: % inhibition at 1 μM
[2] = biological target: recombinant CK2 (casein kinase 2) (Homo sapiens, UniProt P68400); assay: Kinase-Glo residual ATP luminescence
[3] = biological target: CDK3/CycE1 (Homo sapiens, UniProt Q00526); assay: kinase panel, HTRF or ADP-Glo, single dose; details: read-out: % inhibition at 10 μM
[4] = biological target: CDK1/CycA2 (Homo sapiens, UniProt P06493); assay: kinase panel, HTRF or ADP-Glo, single dose; details: read-out: % inhibition at 10 μM
Chain of CDK1/CycA2 (P20248 whole entry): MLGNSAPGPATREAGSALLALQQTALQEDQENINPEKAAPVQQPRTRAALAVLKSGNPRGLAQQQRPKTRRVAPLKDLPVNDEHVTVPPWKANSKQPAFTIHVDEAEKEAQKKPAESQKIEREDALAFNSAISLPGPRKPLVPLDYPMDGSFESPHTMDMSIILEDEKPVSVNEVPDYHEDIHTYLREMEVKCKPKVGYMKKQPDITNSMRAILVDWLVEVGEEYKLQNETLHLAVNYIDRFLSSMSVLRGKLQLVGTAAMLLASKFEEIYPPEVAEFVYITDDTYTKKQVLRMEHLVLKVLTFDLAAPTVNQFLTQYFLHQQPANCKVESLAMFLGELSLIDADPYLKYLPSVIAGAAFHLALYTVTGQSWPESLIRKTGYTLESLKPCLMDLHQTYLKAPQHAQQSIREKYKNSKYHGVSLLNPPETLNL
Chain of CDK1/CycA2 (P06493 whole entry): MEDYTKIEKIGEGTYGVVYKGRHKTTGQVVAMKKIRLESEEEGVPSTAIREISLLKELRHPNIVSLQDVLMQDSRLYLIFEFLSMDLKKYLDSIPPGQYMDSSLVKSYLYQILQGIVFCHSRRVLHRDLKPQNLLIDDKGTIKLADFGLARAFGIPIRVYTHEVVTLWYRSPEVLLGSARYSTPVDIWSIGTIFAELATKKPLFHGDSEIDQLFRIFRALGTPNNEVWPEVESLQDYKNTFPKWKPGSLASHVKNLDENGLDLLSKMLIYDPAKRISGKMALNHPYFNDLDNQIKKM

[5] = biological target: CDK2/CycE1 (Homo sapiens, UniProt P24941); assay: kinase panel, HTRF or ADP-Glo, single dose; details: read-out: % inhibition at 10 μM
[6] = biological target: CDK9/CycT1 (Homo sapiens, UniProt P50750); assay: kinase panel, HTRF or ADP-Glo, single dose; details: read-out: % inhibition at 10 μM
Chain of CDK9/CycT1 (P50750 whole entry): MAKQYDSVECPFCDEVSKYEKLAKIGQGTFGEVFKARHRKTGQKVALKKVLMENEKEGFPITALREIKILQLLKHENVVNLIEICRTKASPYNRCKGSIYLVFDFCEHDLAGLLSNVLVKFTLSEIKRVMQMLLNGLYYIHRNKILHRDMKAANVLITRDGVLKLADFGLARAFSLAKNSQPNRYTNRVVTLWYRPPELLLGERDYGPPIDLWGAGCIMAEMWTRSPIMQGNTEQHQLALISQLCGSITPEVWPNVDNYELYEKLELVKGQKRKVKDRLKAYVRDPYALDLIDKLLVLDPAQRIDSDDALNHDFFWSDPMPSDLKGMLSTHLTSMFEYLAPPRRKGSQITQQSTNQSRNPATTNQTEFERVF
Chain of CDK9/CycT1 (O60563 whole entry partner): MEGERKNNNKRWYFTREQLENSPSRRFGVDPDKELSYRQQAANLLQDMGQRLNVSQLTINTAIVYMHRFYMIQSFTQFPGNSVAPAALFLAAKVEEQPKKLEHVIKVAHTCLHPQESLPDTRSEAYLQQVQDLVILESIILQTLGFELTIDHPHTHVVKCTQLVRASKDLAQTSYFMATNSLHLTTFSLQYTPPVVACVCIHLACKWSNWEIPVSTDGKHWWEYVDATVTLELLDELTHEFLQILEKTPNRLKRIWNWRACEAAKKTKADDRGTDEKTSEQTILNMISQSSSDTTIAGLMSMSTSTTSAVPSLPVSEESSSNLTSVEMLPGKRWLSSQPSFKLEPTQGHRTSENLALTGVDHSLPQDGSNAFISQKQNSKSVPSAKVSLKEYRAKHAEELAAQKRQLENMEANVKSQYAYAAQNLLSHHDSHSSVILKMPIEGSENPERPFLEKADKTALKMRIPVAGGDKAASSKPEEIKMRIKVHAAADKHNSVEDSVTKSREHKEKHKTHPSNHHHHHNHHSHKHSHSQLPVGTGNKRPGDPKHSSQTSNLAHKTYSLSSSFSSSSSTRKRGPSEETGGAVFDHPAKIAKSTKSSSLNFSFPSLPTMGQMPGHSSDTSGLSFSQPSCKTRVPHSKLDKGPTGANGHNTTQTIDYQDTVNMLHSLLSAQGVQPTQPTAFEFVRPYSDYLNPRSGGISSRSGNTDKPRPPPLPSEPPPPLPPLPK

Chain of recombinant CK2 (casein kinase 2) (P68400 whole entry): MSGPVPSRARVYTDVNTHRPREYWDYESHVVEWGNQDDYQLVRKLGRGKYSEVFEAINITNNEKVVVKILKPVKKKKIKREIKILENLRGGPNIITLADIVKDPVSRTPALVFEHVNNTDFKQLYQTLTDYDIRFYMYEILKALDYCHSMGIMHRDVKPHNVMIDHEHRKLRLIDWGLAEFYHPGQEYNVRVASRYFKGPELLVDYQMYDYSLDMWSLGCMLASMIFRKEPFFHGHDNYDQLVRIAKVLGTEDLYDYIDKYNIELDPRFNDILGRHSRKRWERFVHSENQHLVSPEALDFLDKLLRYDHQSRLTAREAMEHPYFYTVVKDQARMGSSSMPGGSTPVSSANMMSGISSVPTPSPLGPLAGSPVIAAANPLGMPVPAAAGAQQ
Chain of recombinant CK2 (casein kinase 2) (P67870 2-215 partner): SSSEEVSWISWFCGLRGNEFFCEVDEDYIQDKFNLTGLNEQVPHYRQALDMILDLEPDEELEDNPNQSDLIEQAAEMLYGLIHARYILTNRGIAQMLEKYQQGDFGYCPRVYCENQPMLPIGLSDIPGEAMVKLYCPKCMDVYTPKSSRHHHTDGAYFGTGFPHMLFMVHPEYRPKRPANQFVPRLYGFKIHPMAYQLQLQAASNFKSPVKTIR
Chain of CDK4/CycD1 (P11802 2-303): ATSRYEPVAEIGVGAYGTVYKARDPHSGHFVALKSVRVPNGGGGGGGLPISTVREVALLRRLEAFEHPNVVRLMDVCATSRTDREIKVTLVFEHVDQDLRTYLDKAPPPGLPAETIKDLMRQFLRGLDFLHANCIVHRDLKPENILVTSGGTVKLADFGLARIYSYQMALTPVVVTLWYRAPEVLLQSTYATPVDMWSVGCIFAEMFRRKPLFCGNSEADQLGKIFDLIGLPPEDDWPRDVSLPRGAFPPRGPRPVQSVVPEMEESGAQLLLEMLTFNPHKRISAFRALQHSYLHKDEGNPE
Chain of CDK4/CycD1 (P24385 whole entry partner): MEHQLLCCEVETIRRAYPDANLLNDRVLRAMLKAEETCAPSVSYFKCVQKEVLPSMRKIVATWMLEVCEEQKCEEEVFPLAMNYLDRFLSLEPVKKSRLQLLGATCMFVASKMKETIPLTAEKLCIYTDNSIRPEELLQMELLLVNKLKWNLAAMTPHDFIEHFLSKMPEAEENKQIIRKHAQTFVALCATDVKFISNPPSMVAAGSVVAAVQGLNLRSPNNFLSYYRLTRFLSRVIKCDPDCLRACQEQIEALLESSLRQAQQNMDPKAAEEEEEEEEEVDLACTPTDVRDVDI
Chain of CDK3/CycE1 (Q00526 whole entry): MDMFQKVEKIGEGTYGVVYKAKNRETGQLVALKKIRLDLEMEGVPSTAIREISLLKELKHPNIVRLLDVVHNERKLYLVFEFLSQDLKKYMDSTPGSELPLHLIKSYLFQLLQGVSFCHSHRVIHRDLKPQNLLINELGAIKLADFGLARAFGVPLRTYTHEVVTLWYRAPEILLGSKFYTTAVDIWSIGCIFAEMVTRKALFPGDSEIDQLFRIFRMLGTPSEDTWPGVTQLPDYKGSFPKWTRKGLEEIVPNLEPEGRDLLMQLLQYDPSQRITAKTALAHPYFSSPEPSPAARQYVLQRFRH
Chain of CDK3/CycE1 (P24864 whole entry, further chain): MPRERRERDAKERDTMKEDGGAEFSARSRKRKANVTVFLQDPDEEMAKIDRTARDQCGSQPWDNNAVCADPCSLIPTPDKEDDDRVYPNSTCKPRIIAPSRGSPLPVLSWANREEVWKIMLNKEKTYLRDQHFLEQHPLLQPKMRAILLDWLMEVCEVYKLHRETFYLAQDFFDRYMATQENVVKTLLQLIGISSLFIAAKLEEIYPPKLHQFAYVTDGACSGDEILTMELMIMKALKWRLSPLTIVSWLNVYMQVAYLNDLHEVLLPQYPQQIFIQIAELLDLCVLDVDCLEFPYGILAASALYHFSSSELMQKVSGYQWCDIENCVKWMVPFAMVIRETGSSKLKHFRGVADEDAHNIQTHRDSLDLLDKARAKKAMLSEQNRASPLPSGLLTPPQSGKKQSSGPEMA

inhibition at 1 µM [1]	IC50 [2]	inhibition at 10 µM [3]	inhibition at 10 µM [4]	inhibition at 10 µM [5]	inhibition at 10 µM [6]	Structure (SMILES)
10.2%	156 nM	–	–	–	–	N=C1NC(=O)/C(=C/c2ccc(O)c([N+](=O)[O-])c2)S1 [compound 2, Compound 2]
–	199 nM	15.3%	14.7%	12.4%	36.1%	Cc1cccc(NCN2C(=O)S/C(=C\c3ccccc3)C2=O)c1 [compound 3, Compound 3]
